Measured values: US8969395B2, “Triterpenoid derivatives useful as antiproliferative agents” (Universidade de Coimbra, priority 2009, dated 2015)

What was measured:
HepG2 cells = assay: Apoptosis, Annexin V-FITC/PI FACS, HepG2; type: cell-based, human; conditions: HepG2, at IC50, 72 h; for effectiveness at inducing apoptosis: FIG. 8; for apoptosis (% of cells, early plus late): in comparison with untreated controls
Procedure: (§1) Assessment of apoptosis was performed 72 h after treatment with derivatives at their IC50. Briefly, the same number of HepG2, HeLa, Jurkat and Chang liver cells as in the cell cycle assay were treated with compounds 20, 44, 46 and betulinic acid 2, as described above. Cells were collected washed once in ice-sold binding buffer (10 mM HEPES/NaOH, pH 7.4, 140 mM NaCl, 2.5 mM CaCl2) and ressuspended in the same buffer (95 μl) at a maximum, of 8×10^5 cells/ml. Annexin V-FITC conjugate (1 μg/ml) was added and incubated for 30 min at room temperature in darkness. Just before FACS analysis, cells were stained with 20 μl of […]. Approximately 1×10^4 cells were analysed for each histogram and experiments were performed three times with triplicates per experiment. FACS analysis using Annexin V-FITC staining and PI accumulation was used to differentiate early apoptotic cells (Annexin V^+ and PI^−) from necrotic or late apoptotic cells (Annexin V^+ and PI^+). […] In comparison with untreated controls, compound 44 treatment of HepG2 cells generated apoptosis in 53% of cells (42% of early apoptosis and 11% of late apoptosis), compound 46 generated apoptosis in 38% of cells (28% of early apoptosis plus 10% late apoptosis) and compound 20 induced apoptosis in 29% of cells (22% of early apoptosis plus 7% late apoptosis) (FIG. 8).

HeLa cells [1] = assay: Cell cycle analysis by flow cytometry (FACS, PI), HeLa; type: cell-based, human; conditions: compound at its IC50, 72 h
Procedure: (§2) The effects on the cell cycle of some of these compounds were assessed through flow cytometry by using a fluorescence-activated cell sorter (FACS) (Table 5 below). For this assay 2.3×10^5 HepG2 cells/well, 2.9×10^4 HeLa cells/well, 1.6×10^5 Jurkat cells/well and 1.4×10^5 Chang liver cells/well were plated in 6 well plates with 2 ml of medium. The number of cells was determined by the relationship number of cells/area wells, considering the number of cells that were cultured in 96-well plates. […] Chang liver cells were incubated with compounds 20, […] at concentrations corresponding to the IC80 determined for HepG2 at 72 h. Following 72 h. of incubation, cells were harvested by mild trypsinization, collected by centrifugation and stained in ice-cold Tris-buffered saline (TBS), containing 1 mg/ml PI, 10 mg/ml RNAse free of DNAase and 0.1% Igepal CA-630 for 1 h at 4° C. FACS analysis was carried out at 488 nm in an Epics XL flow cytometer (Coulter Corporation, Hialeah, Fla.). Data from 8×10^3 cells were collected and analyzed using Multicycle program (Phoenix Flow Systems, San Diego, Calif.). All experiments were performed three times with three replicates per experiment. […] To explore the selectivity of the effect on tumor cells, we also tested compounds 20, 44 and 46 in a non-malignant cell line. Chang liver cells were treated with the compounds at the IC80 values determined for HepG2 after 72 h of incubation and no effect was observed, indicating a selective effect of these agents (Table 5 below).

[2] = tested on: HepG2 (human hepatocellular carcinoma); assay: Cytotoxic activity, MTT assay, HepG2; type: cell-based; conditions: 72 h, mean ±SD
How it was run: (§3)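 HepG2, HeLa and Chang liver cells (8×10^3, 1×10^3, 5×10^3 cells/well) pre-grown 24 h, treated 72 h in triplicate (DMSO <0.1%), MTT 0.5 mg/ml 1 h, read 550 nm. Jurkat (5.5×10^3 cells/well) treated 72 h, XTT 4 h, read 450 nm. IC50 as mean±SD of at least three experiments.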

[3] = tested on: Chang liver (normal liver cell line); assay: Apoptosis, Annexin V-FITC/PI FACS, Chang liver; type: cell-based, human; conditions: at the IC80 found for HepG2, FIG. 8
Procedure: as §1, with “Briefly,” for “Assessment of apoptosis was performed 72 h after treatment with derivatives at their IC50. Briefly,”

Jurkat cells [4] = assay: Cell cycle analysis by flow cytometry (FACS, PI), Jurkat; type: cell-based, human; conditions: compound at its IC50, 72 h
Procedure: as §2

Jurkat cells [5] = assay: Apoptosis, Annexin V-FITC/PI FACS, Jurkat; type: cell-based, human; conditions: at IC50, 72 h, FIG. 8
Procedure: as §1

Jurkat (human leukemia) = assay: Cytotoxic activity, XTT assay, Jurkat; type: cell-based; conditions: 72 h, mean ±SD
How it was run: as §3

[6] = tested on: Chang liver (human normal liver cells); assay: Cytotoxic activity against non-tumoral cell line, MTT assay; type: cell-based; conditions: 72 h, mean ±SD
Procedure: The cytotoxic of compounds of formulas (I) and (II) 14-50 was assessed towards human cancer (HepG2, HeLa and Jurkat) cell lines (Table 3 below). Compounds presented on Table 4 were also tested against a non-tumoral liver cell line (Chang liver). The cell viability of HeLa, HepG2 and Chang liver cells was determined by the MTT assay. Briefly, exponentially growing cells were plated in 96-well plates at a density of 1×10^3, 8×10^3 and 5×10^3 cells/well respectively and incubated for 24 h before treatment. The grown medium was replaced with one contained the tested compounds dissolved in DMSO (final DMSO concentration <0.1%) at different concentrations, in triplicate wells, and cells were incubated for 72 h. After incubation with the compounds, the medium was removed and MTT solution (0.5 mg/ml, 100 μl) was added to each well and the plates were incubated again for 1 h. DMSO (100 μl) was then added to dissolve the formazan crystals and the plates were immediately read at 550 nm on an ELISA plate reader (Tecan Sunrise MR20-301, TECAN, Austria). For the Jurkat cells, the cell viability was determined by the XTT assay. Briefly, exponentially growing cells were plated in 96-well plates at a density of 5.5×10^3 cells/well, treated with different concentrations of compounds in triplicate and incubated for 72 h. After incubation with the compounds the XTT labeling mixture (100 μl) were added to each of the wells and after a 4 h incubation period the plates were read at 450 nm on an ELISA plate reader. […] Known for its cytotoxic activity, betulinic acid 2 was used as a positive control in this experimentation. […] All the IC50 results represent an average of a minimum of three experiments and were expressed as means±standard deviation (SD).

HeLa cells [7] = assay: Apoptosis, Annexin V-FITC/PI FACS, HeLa; type: cell-based, human; conditions: at IC50, 72 h, FIG. 8
Procedure: as §1

SMILES	early apoptosis (Annexin V+ and PI-) (HepG2 cells)	late apoptosis (Annexin V+ and PI+) (HepG2 cells)	effectiveness at inducing apoptosis (HepG2 cells)	apoptosis (% of cells, early plus late) (HepG2 cells)	Phase of cell cycle (% of cells) G0/G1 (HeLa cells [1])	Phase of cell cycle (% of cells) G2/M (HeLa cells [1])	Phase of cell cycle (% of cells) S (HeLa cells [1])	IC50 [2]	apoptosis induction in normal liver cell line [3]	Phase of cell cycle (% of cells) G0/G1 (Jurkat cells [4])	Phase of cell cycle (% of cells) G2/M (Jurkat cells [4])	Phase of cell cycle (% of cells) S (Jurkat cells [4])	effectiveness at inducing apoptosis (Jurkat cells [5])	IC50 (Jurkat (human leukemia))	IC50 [6]	effectiveness at inducing apoptosis (HeLa cells [7])
C=C(C)[C@@H]1CC[C@]2(CO)CC[C@]3(C)[C@H](CC[C@@H]4[C@@]5(C)CC[C@H](OC(=O)n6ccnc6)C(C)(C)[C@@H]5CC[C@]43C)[C@@H]12 [Compound 20, 28-hydroxy-lup-20(29)-en-3β-yl-1H-imidazole-1-carboxylate]	22%	7%	extremely effective	29 % of cells	50.6 ± 1.3 % of cells	13.0 ± 1.4 % of cells	36.4 ± 2.4 % of cells	2 ± 0.4 µM	no effect	48.6 ± 4.4 % of cells	15.8 ± 2.1 % of cells	35.6 ± 3.1 % of cells	extremely effective	11.1 ± 1.3 µM	60.7 ± 3.8 µM	extremely effective
C=C(C)[C@@H]1CC[C@]2(C(=O)n3ccnc3)CC[C@]3(C)[C@H](CC[C@@H]4[C@@]5(C)CCC(=O)C(C)(C)[C@@H]5CC[C@]43C)[C@@H]12 [Compound 44, 28-(1H-imidazol-1-yl)-lup-20(29)-en-3,28-dione]	42%	11%	most effective	53 % of cells	53.1 ± 1.1 % of cells	13.8 ± 1.1 % of cells	33.1 ± 0.9 % of cells	0.8 ± 0.05 µM	no effect	52.7 ± 0.5 % of cells	20.8 ± 1.1 % of cells	26.6 ± 0.9 % of cells	most effective	1.4 ± 0.2 µM	48.8 ± 2.8 µM	most effective
C=C(C)[C@@H]1CC[C@]2(C(=O)n3ccnc3)CC[C@]3(C)[C@H](CC[C@@H]4[C@@]5(C)C=CC(=O)C(C)(C)[C@@H]5CC[C@]43C)[C@@H]12 [Compound 46, 28-(1H-imidazol-1-yl)-lup-1,20 (29)-dien-3,28-dione]	28%	10%	extremely effective	38 % of cells	64.6 ± 2.4 % of cells	9.7 ± 1.3 % of cells	25.6 ± 1.5 % of cells	1.7 ± 0.2 µM	no effect	49.6 ± 2.6 % of cells	20.7 ± 2.4 % of cells	29.8 ± 0.8 % of cells	extremely effective	2.3 ± 0.3 µM	55.9 ± 4.6 µM	extremely effective
